Experimental data published in publication PMC1281266, “Impact of Polychlorinated Biphenyls Contamination on Estrogenic Activity in Human Male Serum” (Environmental Health Perspectives, 2005).
“Also recorded” adds a separate entry of the source.

Tests used:
[1] = test system: T47D.Luc cells; test: Neutral red uptake cytotoxicity assay, 24-hr exposure; type: cell-based, human; conditions: lowest concentration causing a significant decrease of cell viability; 24-hr exposure Neutral Red uptake
Procedure: (§1) We determined estrogenic activities of 17 prevalent PCB congeners using the ER-CALUX bioassay (BioDetection Systems) using the human breast carcinoma T47D.Luc cell line, stably transfected with pEREtataLuc construct ([Legler et al. 1999]; [Machala et al. 2004]). ER-mediated activity was also determined in the cells treated with either total serum hexane/diethyl ether extracts or with a fraction of POPs obtained by a consequent sulfuric acid/silica fractionation. […] We determined cytotoxicity of extracts or individual PCBs by a neutral red uptake assay after a 24-hr exposure.

[2] = target: T1, estrogen receptor (ER) (Homo sapiens, UniProt P03372); test: ER-CALUX bioassay, antiestrogenicity: decrease in response to E2 in co-treated T47D.Luc cells; type: cell-based; conditions: for Effect of co-treatment on ER activation by E2, in words: co-treatment with 3 pM E2, Figure 2B; for Effect on E2-induced luciferase activity (antiestrogenicity), in words: 3 pM E2, T47D.Luc cells, Figure 3
T1 construct: using the human breast carcinoma T47D.Luc cell line, stably transfected with pEREtataLuc construct; host or cells: T47D.Luc (human breast carcinoma, stably transfected with the pEREtataLuc reporter)
Procedure: as §1

[3] = target: T1, estrogen receptor (ER); test: ER-CALUX bioassay, estrogenic (ER-mediated) activity: induction of luciferase in T47D.Luc cells; type: cell-based; conditions: for ER-mediated activity (induction of ER-dependent luciferase activity), in words: individual congeners, micromolar concentrations, Figure 2A; for ER-activated activity IEF (induction equivalency factor): ratio between EC50 of E2 and the PCB concentration inducing the same level of luciferase activity
[4] = test system: rat uterus; parameters: method as in Arcaro et al. 1999; conditions: ref Arcaro et al. 1999; cited from earlier work
[5] = test system: MCF-7 cells; parameters: method as in Arcaro et al. 1999; conditions: ref Arcaro et al. 1999; cited from earlier work
[6] = test system: BG1LucE2 cells; parameters: method as in Rogers and Denison 2000; conditions: 10 μM concentrations; ref Rogers and Denison 2000; cited from earlier work
[7] = test system: MCF-7 cells; parameters: method as in Bonenfeld-Jorgensen et al. 2001; conditions: ref Bonenfeld-Jorgensen et al. 2001; cited from earlier work
[8] = test system: rat uterus; parameters: method as in Li et al. 1994; conditions: at very high concentrations; ref Li et al. 1994; cited from earlier work
[9] = target: T2, AhR (Rattus norvegicus, UniProt P41738); test: DR-CALUX luciferase reporter gene assay, dioxin-like activity; type: cell-based; conditions: data not shown
T2 construct: a luciferase reporter gene assay (DR-CALUX; BioDetection Systems, Amsterdam, the Netherlands) as described previously; rat hepatoma H4IIE.Luc by own knowledge of the DR-CALUX assay
T2 sequence (P41738 10-853): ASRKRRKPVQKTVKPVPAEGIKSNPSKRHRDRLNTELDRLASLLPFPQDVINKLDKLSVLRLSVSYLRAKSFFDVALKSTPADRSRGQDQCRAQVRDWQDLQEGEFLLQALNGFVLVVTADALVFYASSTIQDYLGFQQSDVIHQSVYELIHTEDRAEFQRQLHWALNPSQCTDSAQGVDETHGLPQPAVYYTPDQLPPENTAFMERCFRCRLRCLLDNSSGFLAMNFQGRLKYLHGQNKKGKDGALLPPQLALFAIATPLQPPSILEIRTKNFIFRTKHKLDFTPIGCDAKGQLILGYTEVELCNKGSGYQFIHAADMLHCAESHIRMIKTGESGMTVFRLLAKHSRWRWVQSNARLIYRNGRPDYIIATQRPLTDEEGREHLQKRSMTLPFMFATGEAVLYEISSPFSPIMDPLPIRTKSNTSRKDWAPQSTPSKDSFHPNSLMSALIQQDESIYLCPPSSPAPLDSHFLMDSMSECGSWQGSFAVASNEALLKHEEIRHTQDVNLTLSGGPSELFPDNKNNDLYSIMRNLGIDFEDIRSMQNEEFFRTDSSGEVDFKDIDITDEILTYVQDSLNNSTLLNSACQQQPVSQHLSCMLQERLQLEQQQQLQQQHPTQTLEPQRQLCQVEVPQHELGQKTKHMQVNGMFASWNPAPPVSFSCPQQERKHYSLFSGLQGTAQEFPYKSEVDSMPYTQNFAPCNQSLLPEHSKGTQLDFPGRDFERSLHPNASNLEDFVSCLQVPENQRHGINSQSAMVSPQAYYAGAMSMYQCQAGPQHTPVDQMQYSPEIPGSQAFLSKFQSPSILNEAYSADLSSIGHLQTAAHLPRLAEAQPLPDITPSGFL
Procedure: We determined the levels of cytochrome P450 (CYP) 1A1 and CYP1B1 mRNA in human peripheral lymphocytes by RNA extraction and a quantitative reverse-transcriptase-polymerase chain reaction (RT-PCR) method using TaqMan technology ([Canton et al. 2003]; [van Duursen et al. 2005]). The in vitro potencies of POPs present in serum to activate AhR were measured in sulfuric acid/silica-treated extracts by a luciferase reporter gene assay (DR-CALUX; BioDetection Systems, Amsterdam, the Netherlands) as described previously ([Murk et al. 1996]).

Clc1ccc(-c2ccc(Cl)cc2Cl)cc1 [PCB 28, 2,4,4′-Trichlorobiphenyl]
Cytotoxicity LOEC [1]: > 20 µM
Effect of co-treatment on ER activation by E2, in words [2]: potentiated
EC50 [3]: 8.23 µM
ER-mediated activity (induction of ER-dependent luciferase activity), in words [3]: significant ER-mediated activity; also recorded: induced the ER-mediated activity

Clc1ccc(Cl)c(-c2cc(Cl)ccc2Cl)c1 [PCB 52, 2,2′,5,5′-Tetrachlorobiphenyl]
Cytotoxicity LOEC [1]: > 20 µM
Effect of co-treatment on ER activation by E2, in words [2]: potentiated
EC50 [3]: 9.52 µM
ER-mediated activity (induction of ER-dependent luciferase activity), in words [3]: significant ER-mediated activity; also recorded: induced the ER-mediated activity

Clc1cccc(Cl)c1-c1c(Cl)cccc1Cl [PCB 54, 2,2′,6,6′-Tetrachlorobiphenyl]
Estrogenicity in the rat uterotrophic assay [4]: estrogenic
Estrogenicity in the MCF-7 cell focus assay [5]: estrogenic

Clc1ccc(-c2ccc(Cl)c(Cl)c2)c(Cl)c1 [PCB 66, 2,3′,4,4′-Tetrachlorobiphenyl]
Cytotoxicity LOEC [1]: > 40 µM
ER-mediated (estrogenic) activity in BG1LucE2 cells [6]: estrogenic
EC50 [3]: 24.3 µM
ER-mediated activity (induction of ER-dependent luciferase activity), in words [3]: significant ER-mediated activity; also recorded: induced the ER-mediated activity

Clc1ccc(-c2cc(Cl)c(Cl)cc2Cl)cc1 [PCB 74, 2,4,4′,5-Tetrachlorobiphenyl]
Cytotoxicity LOEC [1]: > 40 µM
EC50 [3]: 17 µM
ER-mediated activity (induction of ER-dependent luciferase activity), in words [3]: significant ER-mediated activity; also recorded: induced the ER-mediated activity

Clc1ccc(-c2ccc(Cl)c(Cl)c2)cc1Cl [PCB 77, 3,3′,4,4′-tetrachlorobiphenyl]
ER-mediated (estrogenic) activity in BG1LucE2 cells [6]: no ER-mediated activity

Clc1ccc(Cl)c(-c2c(Cl)ccc(Cl)c2Cl)c1 [PCB 95, 2,2′,3,5′,6-pentachlorobiphenyl]
ER-mediated (estrogenic) activity in BG1LucE2 cells [6]: estrogenic

Clc1ccc(-c2cc(Cl)c(Cl)cc2Cl)c(Cl)c1 [PCB 99, 2,2′,4,4′,5-Pentachlorobiphenyl]
Cytotoxicity LOEC [1]: > 40 µM
ER-activated activity IEC (induction equivalency concentration) [3]: WI (key: NI: no significant induction/inhibition; WI: weak induction/inhibition (< 50% of estradiol maximum induction)
ER-mediated activity (induction of ER-dependent luciferase activity), in words [3]: only partial ER agonists; also recorded: induced the ER-mediated activity
ER-activated activity IEF (induction equivalency factor) [3]: WI (weak induction/inhibition (< 50% of estradiol maximum induction)

Clc1ccc(-c2ccc(Cl)c(Cl)c2Cl)cc1Cl [PCB 105, 2,3,3′,4,4′-Pentachlorobiphenyl]
Cytotoxicity LOEC [1]: > 40 µM
ER-activated activity IEC (induction equivalency concentration) [3]: WI (key: NI: no significant induction/inhibition; WI: weak induction/inhibition (< 50% of estradiol maximum induction)
ER-mediated activity (induction of ER-dependent luciferase activity), in words [3]: only partial ER agonists; also recorded: induced the ER-mediated activity
ER-activated activity IEF (induction equivalency factor) [3]: WI (weak induction/inhibition (< 50% of estradiol maximum induction)

Clc1ccc(-c2cc(Cl)c(Cl)cc2Cl)cc1Cl [PCB 118, 2,3′,4,4′,5-Pentachlorobiphenyl]
Cytotoxicity LOEC [1]: > 20 µM

Clc1ccc(-c2cc(Cl)c(Cl)c(Cl)c2)cc1Cl [PCB 126, 3,3′,4,4′,5-Pentachlorobiphenyl]
Cytotoxicity LOEC [1]: > 40 µM
Effect on E2-induced luciferase activity (antiestrogenicity), in words [2]: not elicited

Clc1cc(Cl)c(-c2ccc(Cl)c(Cl)c2Cl)cc1Cl [PCB 138, 2,2′,3,4,4′,5′-Hexachlorobiphenyl]
Cytotoxicity LOEC [1]: 20 µM
IC50 [2]: 10.1 µM
Effect on E2-induced luciferase activity (antiestrogenicity), in words [2]: significantly decreased
Antiestrogenic effects in reporter gene and cell proliferation MCF-7 assays [7]: Antiestrogenic effects
ER-mediated activity (induction of ER-dependent luciferase activity), in words [3]: did not induce

Clc1cc(Cl)c(-c2cc(Cl)c(Cl)cc2Cl)cc1Cl [PCB 153, 2,2′,4,4′,5,5′-Hexachlorobiphenyl]
Cytotoxicity LOEC [1]: 20 µM
Estrogenicity in the acute 2-day immature rat uterine weight assay [8]: estrogenic
Antiestrogenic effects in reporter gene and cell proliferation MCF-7 assays [7]: Antiestrogenic effects

Clc1ccc(-c2cc(Cl)c(Cl)c(Cl)c2Cl)cc1Cl [PCB 156, 2,3,3′,4,4′,5-Hexachlorobiphenyl]
Cytotoxicity LOEC [1]: 40 µM
Antiestrogenicity IhEF (inhibitory equivalency factor) [2]: WI (key: NI: no significant induction/inhibition; WI: weak induction/inhibition (< 50% of estradiol maximum induction; < 50% decrease in induction of 3 pM E2))
Antiestrogenicity IC50 ([2]; 50% decrease in luciferase activity induced by 3 pM E2, T47D.Luc cells): WI (weak induction/inhibition (< 50% of estradiol maximum induction; < 50% decrease in induction of 3 pM E2))

Clc1ccc(-c2cc(Cl)c(Cl)c(Cl)c2Cl)c(Cl)c1Cl [PCB 170, 2,2′,3,3′,4,4′,5-Heptachlorobiphenyl]
Cytotoxicity LOEC [1]: 25 µM
IC50 [2]: 16 µM
Effect on E2-induced luciferase activity (antiestrogenicity), in words [2]: significantly decreased
ER-mediated activity (induction of ER-dependent luciferase activity), in words [3]: did not induce

Clc1cc(Cl)c(-c2cc(Cl)c(Cl)c(Cl)c2Cl)cc1Cl [PCB 180, 2,2′,3,4,4′,5,5′-Heptachlorobiphenyl]
Cytotoxicity LOEC [1]: 20 µM
IC50 [2]: 9.32 µM
Effect on E2-induced luciferase activity (antiestrogenicity), in words [2]: significantly decreased
Antiestrogenic effects in reporter gene and cell proliferation MCF-7 assays [7]: Antiestrogenic effects
ER-mediated activity (induction of ER-dependent luciferase activity), in words [3]: did not induce

Clc1cc(Cl)c(-c2c(Cl)c(Cl)cc(Cl)c2Cl)cc1Cl [PCB 187, 2,2′,3,4′,5,5′,6-Heptachlorobiphenyl]
Cytotoxicity LOEC [1]: 20 µM

Clc1cc(-c2cc(Cl)c(Cl)c(Cl)c2Cl)c(Cl)c(Cl)c1Cl [PCB 194, 2,2′,3,3′,4,4′,5,5′-Octachlorobiphenyl]
Cytotoxicity LOEC [1]: 25 µM
IC50 [2]: 14.1 µM
Effect on E2-induced luciferase activity (antiestrogenicity), in words [2]: significantly decreased
ER-mediated activity (induction of ER-dependent luciferase activity), in words [3]: did not induce

Clc1cc(Cl)c(-c2c(Cl)c(Cl)cc(Cl)c2Cl)c(Cl)c1Cl [PCB 199, 2,2′,3,3′,4′,5,6,6′-Octachlorobiphenyl]
Cytotoxicity LOEC [1]: 20 µM
IC50 [2]: 2.85 µM
Effect on E2-induced luciferase activity (antiestrogenicity), in words [2]: significantly decreased
ER-mediated activity (induction of ER-dependent luciferase activity), in words [3]: did not induce

Clc1cc(Cl)c(-c2c(Cl)c(Cl)c(Cl)c(Cl)c2Cl)cc1Cl [PCB 203, 2,2′,3,4,4′,5,5′,6-Octachlorobiphenyl]
Cytotoxicity LOEC [1]: 20 µM
IC50 [2]: 3.2 µM
Effect on E2-induced luciferase activity (antiestrogenicity), in words [2]: significantly decreased
ER-mediated activity (induction of ER-dependent luciferase activity), in words [3]: did not induce

ClC(Cl)=C(c1ccc(Cl)cc1)c1ccc(Cl)cc1 [p,p′-DDE]
Dioxin-like activity, in words [9]: no dioxin-like activity
Estrogenic activity, in words ([3]; data not shown): weak estrogenic
